Measurements published in US20040063624A1, “Method of inhibiting the transition of free HIV virus through the cllular mucosal barrier” (priority 1999, published 2004).

Tests used:
[1] = test system: transport of gp120 coated particles through the epithelial monolayer; experiment: Transepithelial transport of gp120-coated fluorescent particles; type: cell-based, human; settings: for transport of gp120-coated particles, % of the level for unstimulated cells: FSK- and IBMX-treated cells
Text: For transepithelial transport studies gp120 was covalently coupled to monodispersed carboxylated fluorescent microparticles (0,1 μm in diameter; Polysciences, Warlington, Pa.) as described previously (Molday R. S., 1975, J. Cell Biol., 64, 75-88). The active groups of the control beads and the remaining gp120 coated beads were blocked with glycine. The attachment of gp120 to the fluoresent particles was quantified by measuring the binding of a monoclonal anti-HIV gp120 antibody to the beads.
The gp120-coated particles were diluted (10^5 partices/ml) in Hanks buffer and placed in the apical chamber after the epithelial cells were washed three times with Hanks buffer. The apical chamber was transferred into a new basal chamber, and Hanks buffer was changed after 10, 40, 90 min of incubation. The buffer harvested at the indicated time points was centrifuged (14.000×g for 15 min), the pellet was resuspended and the fluorescence activity was measured. A combination of forskolin (FSK 10 μM ) and 3-isobutyl-1-methyl-xantin (IBMX, 10 μm) was used to study the effect of cyclic AMP (cAMP) and epithelial transport. Preincubation of the epithelial cells for 2 h increased the intracellular cAMP level eightfold (cAMP immunoassay: Biomol, Plymouth Meeting, Pa.). Glycine-coated microparticles were used as the control for nonspecific paracellular flow under the experimental conditions: the fluorescence of the controls was subtracted from the fluorescence-activities found in the respective experiments with gp120-coated particles.
After incubation for 10, 40 and 90 min at 37° C., the solution in the basal chamber was changed and the fluorescence activity was measured as described above.
To increase the amount of high-mannose-type glycans on the epithelial cells, cells were preincubated for 2 h with 10 mM desoxymannojirimycin (Fuhrmann U. E., 1984, Nature, 307, 755-788). To control the increase of high-mannose-type glycan expression, the filter membrane was cut and placed in 300 μl of lysis buffer (0,2 M Tris-HCl, 2% SDS, 0,1% dithiothreitol). […]

HIV-1 strain IIIb [2] = experiment: Viral intake and release: cell-free HIV-1 taken up by epithelial monolayer, supernatant titrated on MT4 cells; type: cell-based
Procedure: Epithelial cells were obtained from biopsies of the gingiva of a healthy donor. The biopsies were washed several times with phosphate-buffered saline and cultured after trypsinization in Dulbecco modified Eagle medium containing 10% fetal calf serum (FCS). Fibroblast growth was suppressed by the addition of recombinant epidermal growth factor (10 μg/liters Sigma, Deisenhofen, Germany) to the culture medium. The epithelial character of the primary cells and the formation of tight junctions were confirmed morphologically by electron microscopy.
(§1) HIV-1 strain IIIb (1,8×10^4 50% tissue culture infective doses [TCID50/ml]) harvested from HIV-1 infected H9 cells was cleared from all debris by centrifugation (10 min. 200×g) and filtered through a 0,2 μm pore size filter membrane. The cell-free virus was diluted 1:10 with Hanks buffer and was placeed in the apical compartment (for details see below). After a 45 min incubation, medium from the lower compartment was harvested. The amount of infectious HIV-1 in the basal chamber of the culture unit was determined by a standard tritation assay Tritation of HIV was performed in triplicate in 24-well tissue culture plates on MT 4 cells seeded at a concentration of 2×10^4/ml. Samples were diluted serially (1:10) in culture medium (RPMI 1640 supplemented with 10% FCS and 5% glutamine). The titration was evaluated between 10 and 14 days postinfection when a prominent cytopathic effect (CPE) was visible. Medium was replaced twice a week with cells being diluted as required. Values of TCID50 per milliliter were determined as described in Reed C. J. et al., 1938, Am. J. Hyg., 27, 494.497. All experiments were performed in triplicate.
HIV-1 strain IIIb (1,8×10^5 TCID50/ml) was placed on epithelial cells (10^6/petri dish). […] After a 1-h incubation, the cells were washed three times with trysin (0,25%) and incubated for 10 min at 37° C. with trypsin solution to inactivate all virus particles adsorbed at the cell surface. The cells were harvested and subcultured for different incubation times (see. Table 1). Subsequently, the cell-free supermatant of each subculture was titrated on MT4 cells as described above.
For the data in Table 1 HIV-1 strain IIIb (1,8×10^4 TCID50/ml) was placed on epithelial cells (10^6/petri dish) with or without inhibitors. After a 1-h incubation the cells were treated with trypsin to inactivate all extracellular HIV particles. Cells were incubated with fresh medium and the supernatants were harvested at different time points. Infectious virus in the supernatant was titrated on MT4 cells (see Materials and Methods). All experiments were performed in triplicate. The differences between the infectious titers with and without inhibitors are highly significant for all incubation times (P<0.001 by the Mann Whitney U test).

HIV-1 strain IIIb [3] = experiment: Viral transepithelial transport in two-compartment culture system; type: cell-based; settings: 45 min. incubation; for amount of infectious HIV 1 in the basal compartment: without inhibitor 10^3
Procedure: For transepithelial transport experiments, primary epitheilal cells (10^4/ml) were grown on a polycarbonate filter membrane (9 mm diameter 3,0 μm pore diameter, Becon Dickinson) separating a basal and an apical chamber and cultivated for 10 days until confluence was observed. The development of an epithelial monolayer was examined by confocal laser microscopy. To further test for confluence a fluorescein solution (0,2 mg/ml) or fluorescent paricles (10^6 particles/ml each particle 0,1 μm in diameter) were added to the apical chamber and fluorescence activity in the basal chambers was measured after 45 min of incubation at 4° C. to inhibit cell membrane diffusion. For calibration of paracellular diffusion membranes were covered with a layer of 15% polyacrylamide gel leaving free circular areas by placing small cylinders of defined size on the filter before gel casting. Fluorescence activity which diffused from the apical to the basal chamber through different areas of uncovered epithelial cells was measured after the 45 min. incubation.
as §1
The HIV-1 specificity of the CPE in MT4 cells was confirmed by determination of p24 core protein content by a p24 antigen capture assay (Coulter). […] Experiments were done in triplicate.

With `OC[C@H]1NC[C@@H](O)[C@@H](O)[C@@H]1O` [desoxymannojirimycin, reference compound] the “effect on the cAMP-stimulated increase of particles in the basal compartment (in words)” value ([1]; 2 h preincubation with 10 mM desoxymannojirimycin, FSK/IBMX stimulated cells) was “further augmentation”.
For Mucin, the “HIV concn in the supernatant after treatm.” value (“HIV concn in the supernatant” for short) (HIV-1 strain IIIb [2]; Mucin (1 mM), 60 min. after trypsin treatm.) was 10^1 TCID50/ml, the “HIV concn in the supernatant” value (HIV-1 strain IIIb [2]; Mucin (1 mM), 120 min. after trypsin treatm.) was 10^1 TCID50/ml and the “HIV concn in the supernatant” value (HIV-1 strain IIIb [2]; Mucin (1 mM), 160 min after trypsin treatm.) was 10^1 TCID50/ml. The “HIV concn in the supernatant” value (HIV-1 strain IIIb [2]; Mucin (1 mM), 24 h after trypsin treatm.) was 10^1 TCID50/ml, the “inhibition of viral uptake and release of cell-free HIV-1 (in words)” value (HIV-1 strain IIIb [2]; Table 1) was “significantly inhibit” and the “amount of infectious HIV 1 in the basal compartment” value (HIV-1 strain IIIb [3]; mucin (30 mg/ml per method)) was 10^2 TCID50/ml.
For mannan, the “HIV concn in the supernatant” value (HIV-1 strain IIIb [2]; Mannan (5 mM), 60 min. after trypsin treatm.) was 10^0 TCID50/ml, the “HIV concn in the supernatant” value (HIV-1 strain IIIb [2]; Mannan (5 mM), 120 min. after trypsin treatm.) was 10^1 TCID50/ml and the “HIV concn in the supernatant” value (HIV-1 strain IIIb [2]; Mannan (5 mM), 160 min after trypsin treatm.) was 10^1 TCID50/ml. The “HIV concn in the supernatant” value (HIV-1 strain IIIb [2]; Mannan (5 mM), 24 h after trypsin treatm.) was 10^1 TCID50/ml, the “reduction of the amount of infectious HIV 1 in the basal compartment” value (HIV-1 strain IIIb [3]; mannan (5 mM)) was 1 order of magnitude and the “amount of infectious HIV 1 in the basal compartment” value (HIV-1 strain IIIb [3]; preincubation with mannan (5 mM)) was 10^2 TCID50/ml. For the same compound, the “transport of gp120-coated particles, % of the level for unstimulated cells” value ([1]; mannan 5 mg/ml final concentration) was “about 50%”.
For `CO[C@H]1O[C@H](CO)[C@@H](O)[C@H](O)[C@@H]1O` [aMMP, α-methyl-mannopyramoside], the “HIV concn in the supernatant” value (HIV-1 strain IIIb [2]; aMMP (100 mM), 60 min. after trypsin treatm.) was 10^1 TCID50/ml, the “HIV concn in the supernatant” value (HIV-1 strain IIIb [2]; aMMP (100 mM), 120 min. after trypsin treatm.) was 10^1 TCID50/ml and the “HIV concn in the supernatant” value (HIV-1 strain IIIb [2]; aMMP (100 mM), 160 min after trypsin treatm.) was 10^1 TCID50/ml. For the same compound, the “HIV concn in the supernatant” value (HIV-1 strain IIIb [2]; aMMP (100 mM), 24 h after trypsin treatm.) was 10^1 TCID50/ml, the “reduction of the amount of infectious HIV 1 in the basal compartment” value (HIV-1 strain IIIb [3]; aMMP (100 mM)) was 1 order of magnitude and the “amount of infectious HIV 1 in the basal compartment” value (HIV-1 strain IIIb [3]; preincubation with aMMP (100 mM)) was 10^2 TCID50/ml. For the same compound, the “transport of gp120-coated particles, % of the level for unstimulated cells” value ([1]; aMMP 100 mM final concentration) was “about 50%”.
